In PMC11997541, “Synthesis and Biological Activity of Ultrashort Antimicrobial Peptides Bearing a Non‐Coded Amino Acid” (Journal of Peptide Science, 2025):
Residues, ends and D or L forms follow the SMILES beside them.

Columns and labels:
[1] = test system: S. ent. ATCC 13076; assay: Kirby–Bauer disk diffusion; assay type: cell-based, Salmonella enterica; settings: 20 h; for diameter of growth inhibition, S. ent. ATCC 13076: 100 μg peptide per 6 mm disk, Mueller–Hinton pH 7.2–7.4, 37°C, — read as no inhibition
Method: (§1) The antibacterial activity was tested on Gram‐positive ( Staphylococcus aureus ATCC 25923, Streptococcus pyogenes ATCC 19615, Listeria monocytogenes ATCC 7644, Bacillus subtilis ATCC […], Enterococcus faecalis ATCC 29212, E. faecalis ATCC 51299, and some clinical isolates, Streptococcus mitis , Streptococcus oralis , S. pyogenes Group A and Streptococcus Group G), Gram‐negative ( Klebsiella aerogenes ATCC 13048, Salmonella enterica ATCC […], Escherichia coli ATCC 25922, Pseudomonas aeruginosa ATCC 27853, Acinetobacter baumannii ATCC […], Klebsiella pneumoniae ATCC 13883, Proteu mirabilis ATCC 14153) bacterial strains, and Saccharomyces cerevisiae ATCC 9763, according to the standardized disk diffusion Kirby–Bauer method.
(§2) Peptide solutions in DMSO were adsorbed into paper disks (Macherey‐Nagel 615, Germany) of 6 mm in diameter. Every disk was loaded with 100 μg of peptide. The bacteria inoculum was of 0.5 Mc Farland, corresponding to 1–2 x 10^8 CFU/mL. The tests were carried out on Mueller–Hinton culture medium at pH 7.2–7.4 with incubation at 37°C for 20 h. Peptide activity was determined by measuring the diameters (in millimeters) of bacteria/fungi growth inhibition around the paper disks.

[2] = no CD signal in phosphate buffer (PB) pH 7.4, peptide 1 mM, room temperature
Method: Electronic CD curves in the amide region (190–260 nm) were obtained on a Jasco (Tokyo, Japan) model J‐1500 spectropolarimeter. A fused quartz cell of 0.02 cm pathlength (Hellma, Mühlheim, Germany) was used to record spectra in phosphate buffer pH 7.4 (PB), and aqueous sodium dodecyl sulfate (SDS, 30 mM). Spectra were collected at room temperature with peptide concentrations of 1 mM. After baseline subtraction, the values recorded were transformed into [θ]T, the total molar ellipticity (deg × cm^2 × dmol^−1) by means of the JASCO software Spectra Manager.

[3] = Peptide stability in serum; assay type: in vitro ADME; settings: human serum in HEPES 25 mM pH 7.6, 37°C, over 24 h, HPLC or HPLC–MS, triplicate
Method: The peptides were dissolved in DMSO at a concentration of 5 mg/mL. In Eppendorf tubes, 1 mL of HEPES buffer (25 mM, pH = 7.6) was temperature equilibrated at 37°C before adding 250 μL of human serum and 20 μL of peptide solution. The reaction was monitored for 24 h. At fixed intervals, 100 μL of the solution was withdrawn and added with 200 μL of absolute ethanol. The sample was kept on ice for 15 min and then centrifuged at 16,000 g for 5 min. Finally, the supernatant solution was analyzed by HPLC or HPLC–MS..
A peptide of similar length, not resistant to degradation in serum, was used as a positive test. The peptide sequence is as follows: Tyr‐Ser‐Ser‐Phe‐Leu.
To verify peptide stability in buffer solution, samples containing peptide solutions, buffer, and ethanol were also analyzed. All of the degradation experiments were carried out in triplicate.

[4] = test system: various bacterial strains, both Gram‐positive and Gram‐negative, as well as S. cerevisiae; assay: Kirby–Bauer disk diffusion, whole panel; assay type: cell-based; settings: 100 μg peptide per disk, 37°C, 20 h, all strains tested
Method: as §1, §2

SMILES	diameter of growth inhibition, S. ent. ATCC 13076 [1] [mm]	solubility in water, in words [2]	serum stability, ranking in words [3]	also measured
CCCCCCCCCCCCCCCC(=O)N[C@@H](Cc1c[nH]cn1)C(=O)N[C@@H](C)C(=O)N[C@H](C)C(=O)N[C@@H](Cc1c[nH]cn1)C(N)=O [P0, Palm‐His‐Ala‐D‐Ala‐His‐NH2] (HELM PEPTIDE1{[CCCCCCCCCCCCCCCC(=O)[*:2]].H.A.[dA].H.[am]}$$$$V2.0)	10	poor solubility in water	–	activity against Salmonella enterica ATCC 13076, in words ([1]; 100 μg peptide per disk, 37°C): selectively active
CCCCCCCCCCCCCCCC(=O)N[C@@H](Cn1ccnc1)C(=O)N[C@@H](C)C(=O)N[C@H](C)C(=O)N[C@@H](Cn1ccnc1)C(N)=O [P1, Palm‐L‐His*‐Ala‐D‐Ala‐L‐His*‐NH2]	–	poor solubility in water	–	–
CCCCCCCCCCCCCCCC(=O)N[C@H](Cn1ccnc1)C(=O)N[C@@H](C)C(=O)N[C@H](C)C(=O)N[C@H](Cn1ccnc1)C(N)=O [P2, Palm‐D‐His*‐Ala‐D‐Ala‐D‐His*‐NH2]	–	poor solubility in water	best candidates in terms of serum stability	–
CC(=O)N[C@@H](Cc1c[nH]cn1)C(=O)N[C@@H](C)C(=O)N[C@H](C)C(=O)N[C@@H](Cc1c[nH]cn1)C(=O)NCCCCCCCCCCC(N)=O [P3, Ac‐His‐Ala‐D‐Ala‐His‐Aun‐NH2] (HELM PEPTIDE1{[ac].H.A.[dA].H.[O=C(CCCCCCCCCCN[*:1])[*:2]].[am]}$$$$V2.0)	–	–	–	antimicrobial activity over the panel, in words [4]: no activity
CCCCCCCCCCCC(=O)N[C@@H](Cc1c[nH]cn1)C(=O)N[C@@H](C)C(=O)N[C@H](C)C(=O)N[C@@H](Cc1c[nH]cn1)C(N)=O [P6, Laur‐His‐Ala‐D‐Ala‐His‐NH2] (HELM PEPTIDE1{[CCCCCCCCCCCC(=O)[*:2]].H.A.[dA].H.[am]}$$$$V2.0)	9	–	–	–
CCCCCCCCCCCC(=O)N[C@H](Cn1ccnc1)C(=O)N[C@@H](C)C(=O)N[C@H](C)C(=O)N[C@H](Cn1ccnc1)C(N)=O [P8, Laur‐D‐His*‐Ala‐D‐Ala‐D‐His*‐NH2]	–	–	best candidates in terms of serum stability	–
